Reference: ChEMBL document CHEMBL1240375, “Identification of a plasmid-borne resistance gene cluster comprising the resistance genes erm(T), dfrK, and tet(L) in a porcine methicillin-resistant Staphylococcus aureus ST398 strain” (2010)
In brackets after ≈: the same amount, converted by molar mass.

Columns and labels:
[1] = test system: Staphylococcus aureus; test: Antimicrobial activity against Staphylococcus aureus RN4220 transformant carrying plasmid pKKS25 and expressing erm(T), dfrK and tet(L) genes by broth microdilution method; type: functional
[2] = test system: Staphylococcus aureus; test: Antimicrobial activity against Staphylococcus aureus RN4220 by broth microdilution method; type: functional
[3] = test system: Staphylococcus aureus; test: Antimicrobial activity against Staphylococcus aureus 25 transformant carrying plasmid pKKS25 and expressing erm(T), dfrKtet(L), tet(K), tet(M), mecA and blaZ genes by broth microdilution method

Compound	MIC [1] [µg/mL]	MIC [2] [µg/mL]	MIC [3] [µg/mL]
CC1(C)S[C@@H]2[C@H](NC(=O)[C@H](N)c3ccccc3)C(=O)N2[C@H]1C(=O)O [AMPICILLIN]	0.06 (≈ 0.172 µM)	0.06 (≈ 0.172 µM)	–
CN[C@@H]1[C@@H](O[C@H]2O[C@H](CO)[C@@H](N)[C@H](O)[C@H]2O)OC2C[C@@H](N)[C@@H](O[C@H]3[C@H](O)[C@@H](O)[C@H](N)C[C@@H]3N)OC2[C@@H]1O (stereo not given in full) [APRAMYCIN]	1 (≈ 1.85 µM)	1 (≈ 1.85 µM)	4 (≈ 7.41 µM)
O=C(N[C@H](CO)[C@H](O)c1ccc([N+](=O)[O-])cc1)C(Cl)Cl [CHLORAMPHENICOL]	4 (≈ 12.4 µM)	4 (≈ 12.4 µM)	8 (≈ 24.8 µM)
CCC[C@@H]1C[C@@H](C(=O)N[C@@H]([C@H]2O[C@H](SC)[C@H](O)[C@@H](O)[C@H]2O)[C@H](C)Cl)N(C)C1 [CLINDAMYCIN]	≥ 64	≤ 0.12	≥ 64
CCN1CCN(c2cc3c(cc2F)c(=O)c(C(=O)O)cn3C2CC2)CC1 [ENROFLOXACIN]	0.25 (≈ 0.696 µM)	0.25 (≈ 0.696 µM)	0.25 (≈ 0.696 µM)
CC[C@H]1OC(=O)[C@H](C)[C@@H](O[C@H]2C[C@@](C)(OC)[C@@H](O)[C@H](C)O2)[C@H](C)[C@@H](O[C@@H]2O[C@H](C)C[C@H](N(C)C)[C@H]2O)[C@](C)(O)C[C@@H](C)C(=O)[C@H](C)[C@@H](O)[C@]1(C)O [ERYTHROMYCIN]	≥ 128	0.25 (≈ 0.341 µM)	≥ 128
CC(=O)NC[C@H]1CN(c2ccc(N3CCOCC3)c(F)c2)C(=O)O1 [LINEZOLID]	0.5 (≈ 1.48 µM)	0.5 (≈ 1.48 µM)	0.5 (≈ 1.48 µM)
Cc1onc(-c2ccccc2)c1C(=O)N[C@@H]1C(=O)N2[C@@H]1SC(C)(C)[C@@H]2C(=O)O [OXACILLIN]	0.06 (≈ 0.149 µM)	0.06 (≈ 0.149 µM)	8 (≈ 19.9 µM)
CC1(C)S[C@@H]2[C@H](NC(=O)Cc3ccccc3)C(=O)N2[C@H]1C(=O)O [PENICILLIN G]	–	≤ 0.03	16 (≈ 47.8 µM)
CN[C@@H]1[C@H](O)[C@H](NC)[C@H]2O[C@@]3(O)C(=O)C[C@@H](C)O[C@H]3O[C@@H]2[C@H]1O [SPECTINOMYCIN]	64 (≈ 193 µM)	64 (≈ 193 µM)	64 (≈ 193 µM)
CN(C)[C@@H]1C(O)=C(C(N)=O)C(=O)[C@@]2(O)C(O)=C3C(=O)c4c(O)cccc4[C@@](C)(O)[C@H]3C[C@@H]12 [TETRACYCLINE]	32 (≈ 72 µM)	0.06 (≈ 0.135 µM)	128 (≈ 288 µM)
C=C[C@]1(C)C[C@@H](OC(=O)CSCCN(CC)CC)[C@]2(C)[C@H](C)CC[C@]3(CCC(=O)[C@H]32)[C@@H](C)[C@@H]1O [TIAMULIN]	0.12 (≈ 0.243 µM)	0.12 (≈ 0.243 µM)	0.5 (≈ 1.01 µM)
COc1cc(Cc2cnc(N)nc2N)cc(OC)c1OC [TRIMETHOPRIM]	≥ 128	0.5 (≈ 1.72 µM)	≥ 128
CC[C@H]1OC(=O)C[C@@H](O)[C@H](C)[C@@H](O[C@@H]2O[C@H](C)[C@@H](O[C@H]3C[C@@](C)(O)[C@@H](O)[C@H](C)O3)[C@H](N(C)C)[C@H]2O)[C@@H](CC=O)C[C@@H](C)C(=O)/C=C/C(C)=C/[C@@H]1CO[C@@H]1O[C@H](C)[C@@H](O)[C@@H](OC)[C@H]1OC.O=C(O)C(O)C(O)C(=O)O [TYLOCIN TARTARATE]	≥ 64	1	≥ 64
C=C[C@]1(C)C[C@@H](OC(=O)CSC(C)(C)CNC(=O)[C@H](N)C(C)C)[C@]2(C)[C@H](C)CC[C@]3(CCC(=O)[C@H]32)[C@@H](C)[C@@H]1O [VALNEMULIN]	0.03 (≈ 0.0531 µM)	0.03 (≈ 0.0531 µM)	0.03 (≈ 0.0531 µM)
GENTAMICIN	0.25	0.25	–
